Measurements taken from ChEMBL document CHEMBL1201862, “PubChem BioAssay data set” (2004).
Active and inactive are the calls of the source.

Tests used:
Beta-galactosidase = Beta-galactosidase (Escherichia coli, UniProt Q8VNN2); test: PubChem AID 485352; format: functional
[1] = target: T1, Type-1 angiotensin II receptor (Homo sapiens, UniProt P30556); test: antagonism of angiotensin II type 1 receptor – cell-based, uHTS hits, selectivity assay for APJ receptor antagonist project, dose response (AID 463214); format: functional;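 note: antagonist potency against angiotensin II stimulated AT1 response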
T1 sequence (P30556 whole entry): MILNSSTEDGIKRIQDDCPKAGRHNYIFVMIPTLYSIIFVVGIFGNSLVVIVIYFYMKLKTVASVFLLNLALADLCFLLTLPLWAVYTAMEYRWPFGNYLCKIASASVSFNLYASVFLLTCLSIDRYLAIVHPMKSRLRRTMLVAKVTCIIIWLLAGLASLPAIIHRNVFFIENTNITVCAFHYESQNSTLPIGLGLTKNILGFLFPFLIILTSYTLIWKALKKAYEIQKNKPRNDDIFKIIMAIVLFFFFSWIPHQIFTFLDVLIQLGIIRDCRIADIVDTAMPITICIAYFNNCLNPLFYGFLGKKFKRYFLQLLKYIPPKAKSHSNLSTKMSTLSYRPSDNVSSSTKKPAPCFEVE

[2] = HGIII-sPLA2 enzyme inhibition potency – biochemical, QFRET, IC50, dose response (AID 743457);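 note: green fluorescence rise as the enzyme cleaves BODIPY PC-A2 in liposomes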
[3] = target: T2, Polyadenylate-binding protein 1 (Homo sapiens, UniProt P11940); test: MLLE domain peptide-binding blockers, IC50 – biochemical, fluorescence polarization, FITC-PAM2 peptide, dose response (AID 602259); format: functional; details: read-out: IC50_Mean
Protein Tat = target: T3, Protein Tat (Human immunodeficiency virus type 1 group M subtype B (isolate HXB2)(HIV-1), UniProt P04608); format: functional;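 note: tat binding to TAR RNA read out by fluorescence polarization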
T3 sequence (P04608 whole entry): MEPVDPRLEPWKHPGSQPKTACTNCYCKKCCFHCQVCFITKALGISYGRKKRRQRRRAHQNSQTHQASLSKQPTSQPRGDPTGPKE

[4] = target: T2, Polyadenylate-binding protein 1; test: MLLE binding blockers, Cy5 peptide tracer – biochemical, fluorescence polarization, Cy5-PAM2 peptide, secondary, miRNA deadenylation inhibitor project, dose response (AID 602260); format: functional; details: read-out: IC50_Mean
[5] = target: T4, Neuropeptide Y receptor type 1 (Homo sapiens, UniProt P25929); format: functional;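 note: HEK293 cells with a CNG channel challenged with NPY then isoproterenol; potency as antagonist that reverses NPY suppression of cAMP signal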
T4 sequence (P25929 whole entry): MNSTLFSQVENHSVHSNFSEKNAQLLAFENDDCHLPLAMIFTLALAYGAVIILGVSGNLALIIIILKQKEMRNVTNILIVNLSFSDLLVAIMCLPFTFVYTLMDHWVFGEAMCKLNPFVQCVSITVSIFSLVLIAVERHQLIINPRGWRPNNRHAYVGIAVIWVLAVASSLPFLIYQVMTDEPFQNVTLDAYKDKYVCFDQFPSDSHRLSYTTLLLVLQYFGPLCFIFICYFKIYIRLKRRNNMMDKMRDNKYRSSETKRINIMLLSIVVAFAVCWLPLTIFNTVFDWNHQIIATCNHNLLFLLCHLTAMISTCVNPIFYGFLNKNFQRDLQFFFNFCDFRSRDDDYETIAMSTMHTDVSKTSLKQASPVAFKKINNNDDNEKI

[6] = target: T5, Neuropeptide Y receptor type 2 (Homo sapiens, UniProt P49146); format: functional, cell-based;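 note: HEK293 cells expressing the receptor and a CNG channel; stimulus was NPY near EC95 followed by isoproterenol to raise cAMP; antagonist potency measured as restoring cAMP signal that NPY suppresses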
T5 sequence (P49146 whole entry): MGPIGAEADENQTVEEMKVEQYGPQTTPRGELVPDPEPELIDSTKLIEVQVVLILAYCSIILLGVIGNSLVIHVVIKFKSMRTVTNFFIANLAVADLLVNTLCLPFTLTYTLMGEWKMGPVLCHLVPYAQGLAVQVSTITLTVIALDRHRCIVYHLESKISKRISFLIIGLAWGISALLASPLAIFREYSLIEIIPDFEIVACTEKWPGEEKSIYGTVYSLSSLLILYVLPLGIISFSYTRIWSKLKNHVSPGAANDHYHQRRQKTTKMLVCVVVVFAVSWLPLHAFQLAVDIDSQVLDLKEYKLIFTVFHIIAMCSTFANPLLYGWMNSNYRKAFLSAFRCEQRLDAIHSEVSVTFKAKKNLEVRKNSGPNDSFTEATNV

Estrogen receptor beta = Estrogen receptor beta (Homo sapiens, UniProt Q92731); test: blockers of SRC-3 recruitment to ERβ – biochemical, ELISA, streptavidin-HRP readout, orthogonal assay, confirmation (AID 1060)
Albumin = Albumin (Bos taurus, UniProt P02769); test: Counterscreen for inhibitors of T-cell receptor (TCR)-CD3 interaction: Fluorescence-based biochemical high throughput dose response assay to identify inhibitors of T-cell receptor (TCR)-CD3 interaction using a TAMRA-labeled BSA probe.; format: functional
[7] = target: T6, Rac GTPase-activating protein 1 (Homo sapiens, UniProt Q9H0H5); test: blockers of MgcRacGAP-driven Rac1 GTP hydrolysis – biochemical, ADP Hunter fluorescence, primary and confirmatory, confirmation (AID 624330); format: functional
T6 sequence (Q9H0H5 whole entry): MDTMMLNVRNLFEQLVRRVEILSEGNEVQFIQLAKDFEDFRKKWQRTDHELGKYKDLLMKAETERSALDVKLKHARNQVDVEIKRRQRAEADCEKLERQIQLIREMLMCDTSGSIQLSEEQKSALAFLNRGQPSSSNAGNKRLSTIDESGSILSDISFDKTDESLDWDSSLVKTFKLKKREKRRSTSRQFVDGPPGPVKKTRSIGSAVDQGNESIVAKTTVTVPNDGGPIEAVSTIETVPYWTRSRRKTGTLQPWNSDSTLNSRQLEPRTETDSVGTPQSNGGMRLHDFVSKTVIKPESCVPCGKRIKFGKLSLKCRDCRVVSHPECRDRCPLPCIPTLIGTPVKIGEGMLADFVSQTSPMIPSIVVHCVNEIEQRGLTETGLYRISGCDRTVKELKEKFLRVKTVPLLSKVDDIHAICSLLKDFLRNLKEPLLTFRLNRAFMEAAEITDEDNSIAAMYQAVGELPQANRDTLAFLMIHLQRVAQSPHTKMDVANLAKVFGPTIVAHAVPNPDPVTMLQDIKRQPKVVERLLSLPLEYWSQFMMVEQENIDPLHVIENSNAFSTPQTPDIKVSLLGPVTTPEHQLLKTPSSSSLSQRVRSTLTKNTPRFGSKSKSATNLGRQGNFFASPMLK

Genome polyprotein = Genome polyprotein (dengue virus type 2, UniProt P29990); test: flavivirus cap methylation enzyme inhibition – biochemical, confirmation dose response, primary screen (AID 588689); format: functional
[8] = viability loss in HeLa cells – cytotoxicity control for MgcRacGAP inhibitor project, dose response (AID 624300); format: functional
Large T antigen = Large T antigen (Simian virus 40, UniProt P03070); format: functional, Betapolyomavirus macacae;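 note: Confirmatory-stage PubChem screen for compounds that inhibit SV40 T antigen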
[9] = fluconazole-exposed Candida albicans growth modulators – fluorescence, retest, confirmation (AID 2467); format: functional, cell-based
[10] = NIH-3T3 fibroblast cytotoxicity, dose response, cytotoxicity control, cell-based, fluorescence, Alamar Blue, secondary assay (AID 2327); format: functional;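 note: NIH-3T3 mouse fibroblasts cultured with fluconazole at 8 µg/mL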
[11] = viability of uninfected HEp-2 cells – cell-based, HTS, cytotoxicity control for RSV inhibitor project, dose response (AID 2410); format: functional; details: human respiratory syncytial virus
[12] = OVCAR8 cell viability loss – plate reader, dry powder samples, PAX8 project, dose response (AID 743197); format: functional, cell-based; details: OVCAR-8
Paired box protein Pax-8 = Paired box protein Pax-8 (Homo sapiens, UniProt Q06710); test: PAX8 transcriptional activity inhibition in RMG-I – RMG-I cells, luciferase, cherry-pick, dose response (AID 687027); format: functional, cell-based;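 note: luciferase reporter driven by Pax8 target thyroperoxidase promoter measured by SteadyGlo luminescence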
[13] = T. cruzi growth inhibition in host cells, dose response, cell-based, plate reader, dry powder, set 2 (AID 652275); format: functional
[14] = HCT116 cell viability decrease, GSK3B pretreatment – CellTiter-Glo, IC50, dose response (AID 1117339); format: functional; details: HCT-116
[15] = Reduced DLD-1 viability, concentration-response, CellTiter-Glo luminescence (AID 1117352); format: functional
[16] = cytotoxicity toward Colo320 cells – cell-based, CellTiter-Glo luminescence, IC50, dose response (AID 1117334); format: functional; details: COLO 320
[17] = CellTiter-Glo luminescence survival assay, SW480 colon tumor line, concentration-response curve, half-maximal inhibitory concentration (AID 1117338); format: functional
[18] = SNU-C1 cell viability reduction, dose response, CellTiter-Glo luminescence (AID 1117323); format: functional, cell-based
[19] = RKO cell viability reduction, dose response, CellTiter-Glo luminescence (AID 1117322); format: functional
[20] = cytotoxicity toward HT-29 cells – cell-based, CellTiter-Glo luminescence, IC50, dose response (AID 1117330); format: functional
[21] = cytotoxicity toward HCT116 cells – cell-based, CellTiter-Glo luminescence, IC50, dose response (AID 1117332); format: functional; details: HCT-116
[22] = rise of 4N DNA cells, HeLa – IC50, dose response (AID 1117351); format: functional, cell-based
[23] = rise of 2N DNA cells, HeLa – IC50, dose response (AID 1117349); format: functional, cell-based

T2 sequence (P11940 whole entry, the tested form may be a part): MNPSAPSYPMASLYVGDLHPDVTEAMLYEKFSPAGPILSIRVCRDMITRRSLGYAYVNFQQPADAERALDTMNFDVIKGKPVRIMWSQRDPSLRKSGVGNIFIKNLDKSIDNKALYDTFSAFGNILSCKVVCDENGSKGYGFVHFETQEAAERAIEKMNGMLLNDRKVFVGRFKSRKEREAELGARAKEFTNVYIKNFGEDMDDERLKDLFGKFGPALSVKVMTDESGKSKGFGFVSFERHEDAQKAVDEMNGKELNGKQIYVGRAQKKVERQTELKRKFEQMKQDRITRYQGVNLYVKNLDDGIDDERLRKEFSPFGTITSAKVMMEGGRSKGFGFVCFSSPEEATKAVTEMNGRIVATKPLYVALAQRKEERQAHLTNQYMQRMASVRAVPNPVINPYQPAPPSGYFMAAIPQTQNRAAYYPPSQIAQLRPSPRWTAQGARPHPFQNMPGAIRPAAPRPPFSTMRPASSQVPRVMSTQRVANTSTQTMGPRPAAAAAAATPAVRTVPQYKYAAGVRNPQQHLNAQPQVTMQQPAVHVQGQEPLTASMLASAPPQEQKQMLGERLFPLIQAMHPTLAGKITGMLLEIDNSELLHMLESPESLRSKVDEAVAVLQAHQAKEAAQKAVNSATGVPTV
Chain of Albumin (P02769 whole entry): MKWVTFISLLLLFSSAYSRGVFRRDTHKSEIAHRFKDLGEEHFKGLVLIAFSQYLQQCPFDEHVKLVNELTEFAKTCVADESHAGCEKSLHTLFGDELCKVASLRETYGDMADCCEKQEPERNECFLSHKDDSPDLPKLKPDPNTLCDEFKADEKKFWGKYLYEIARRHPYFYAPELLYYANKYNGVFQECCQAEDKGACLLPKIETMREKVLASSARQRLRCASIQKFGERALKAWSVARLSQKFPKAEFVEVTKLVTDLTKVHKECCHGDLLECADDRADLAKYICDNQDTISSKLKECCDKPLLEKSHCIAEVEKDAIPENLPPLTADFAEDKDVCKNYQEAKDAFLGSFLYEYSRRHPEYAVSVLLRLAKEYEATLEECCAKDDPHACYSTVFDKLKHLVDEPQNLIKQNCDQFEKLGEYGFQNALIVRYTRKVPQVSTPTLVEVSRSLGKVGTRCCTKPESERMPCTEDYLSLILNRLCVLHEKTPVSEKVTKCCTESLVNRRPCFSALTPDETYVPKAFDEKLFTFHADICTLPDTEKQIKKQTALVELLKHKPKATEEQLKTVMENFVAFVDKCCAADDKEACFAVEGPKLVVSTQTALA
Chain of Beta-galactosidase (Q8VNN2 whole entry): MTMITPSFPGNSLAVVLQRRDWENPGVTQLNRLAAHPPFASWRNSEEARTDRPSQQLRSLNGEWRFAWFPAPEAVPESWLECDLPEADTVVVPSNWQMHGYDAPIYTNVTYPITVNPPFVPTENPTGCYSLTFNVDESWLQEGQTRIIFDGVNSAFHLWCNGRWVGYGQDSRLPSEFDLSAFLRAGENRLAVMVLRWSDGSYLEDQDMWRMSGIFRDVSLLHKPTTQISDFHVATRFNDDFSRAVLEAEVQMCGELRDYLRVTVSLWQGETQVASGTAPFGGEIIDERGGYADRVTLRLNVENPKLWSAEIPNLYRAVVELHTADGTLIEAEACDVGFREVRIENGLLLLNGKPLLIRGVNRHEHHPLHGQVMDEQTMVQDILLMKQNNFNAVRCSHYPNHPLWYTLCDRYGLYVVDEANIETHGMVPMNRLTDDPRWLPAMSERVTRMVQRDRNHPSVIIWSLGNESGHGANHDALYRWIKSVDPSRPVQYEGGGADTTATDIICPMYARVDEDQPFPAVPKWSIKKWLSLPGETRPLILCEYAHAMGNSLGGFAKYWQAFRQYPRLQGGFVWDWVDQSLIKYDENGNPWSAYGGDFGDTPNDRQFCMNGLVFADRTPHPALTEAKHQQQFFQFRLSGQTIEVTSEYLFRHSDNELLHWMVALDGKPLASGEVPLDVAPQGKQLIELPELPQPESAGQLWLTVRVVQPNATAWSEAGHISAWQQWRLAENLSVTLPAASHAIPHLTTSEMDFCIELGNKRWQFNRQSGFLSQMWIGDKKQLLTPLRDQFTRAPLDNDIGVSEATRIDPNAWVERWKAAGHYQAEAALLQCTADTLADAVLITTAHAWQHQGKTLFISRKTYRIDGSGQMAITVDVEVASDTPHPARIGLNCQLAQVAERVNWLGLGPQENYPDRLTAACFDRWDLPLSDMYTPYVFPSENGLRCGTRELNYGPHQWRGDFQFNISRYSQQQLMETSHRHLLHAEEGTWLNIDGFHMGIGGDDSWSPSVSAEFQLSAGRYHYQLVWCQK
Chain of Paired box protein Pax-8 (Q06710 whole entry): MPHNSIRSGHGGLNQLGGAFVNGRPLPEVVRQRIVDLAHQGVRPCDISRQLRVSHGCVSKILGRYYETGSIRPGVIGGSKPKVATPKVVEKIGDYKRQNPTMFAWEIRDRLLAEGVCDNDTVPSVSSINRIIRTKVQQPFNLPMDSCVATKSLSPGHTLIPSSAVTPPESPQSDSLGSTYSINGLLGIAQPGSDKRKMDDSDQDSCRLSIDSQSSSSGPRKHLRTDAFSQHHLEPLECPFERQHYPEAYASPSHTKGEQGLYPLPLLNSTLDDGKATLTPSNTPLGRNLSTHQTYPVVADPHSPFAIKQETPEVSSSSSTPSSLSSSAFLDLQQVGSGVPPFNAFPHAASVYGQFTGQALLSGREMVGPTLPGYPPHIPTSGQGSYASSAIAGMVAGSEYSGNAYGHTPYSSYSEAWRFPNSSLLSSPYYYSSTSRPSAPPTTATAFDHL
Chain of Estrogen receptor beta (Q92731 whole entry): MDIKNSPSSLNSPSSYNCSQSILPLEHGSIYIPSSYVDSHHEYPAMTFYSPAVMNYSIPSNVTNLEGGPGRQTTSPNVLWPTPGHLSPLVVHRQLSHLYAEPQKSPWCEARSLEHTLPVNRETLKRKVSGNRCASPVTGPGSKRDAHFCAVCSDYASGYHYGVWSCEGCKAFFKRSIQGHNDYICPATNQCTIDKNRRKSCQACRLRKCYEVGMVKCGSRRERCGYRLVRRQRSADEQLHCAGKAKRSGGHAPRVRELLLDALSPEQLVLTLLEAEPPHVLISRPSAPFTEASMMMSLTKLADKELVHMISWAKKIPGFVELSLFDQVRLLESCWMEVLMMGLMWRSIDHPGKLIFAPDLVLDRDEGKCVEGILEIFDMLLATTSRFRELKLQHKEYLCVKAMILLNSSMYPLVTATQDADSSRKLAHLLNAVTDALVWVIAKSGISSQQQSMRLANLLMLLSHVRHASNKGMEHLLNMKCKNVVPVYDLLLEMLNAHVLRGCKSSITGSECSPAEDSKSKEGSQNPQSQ
Chain of Large T antigen (P03070 whole entry): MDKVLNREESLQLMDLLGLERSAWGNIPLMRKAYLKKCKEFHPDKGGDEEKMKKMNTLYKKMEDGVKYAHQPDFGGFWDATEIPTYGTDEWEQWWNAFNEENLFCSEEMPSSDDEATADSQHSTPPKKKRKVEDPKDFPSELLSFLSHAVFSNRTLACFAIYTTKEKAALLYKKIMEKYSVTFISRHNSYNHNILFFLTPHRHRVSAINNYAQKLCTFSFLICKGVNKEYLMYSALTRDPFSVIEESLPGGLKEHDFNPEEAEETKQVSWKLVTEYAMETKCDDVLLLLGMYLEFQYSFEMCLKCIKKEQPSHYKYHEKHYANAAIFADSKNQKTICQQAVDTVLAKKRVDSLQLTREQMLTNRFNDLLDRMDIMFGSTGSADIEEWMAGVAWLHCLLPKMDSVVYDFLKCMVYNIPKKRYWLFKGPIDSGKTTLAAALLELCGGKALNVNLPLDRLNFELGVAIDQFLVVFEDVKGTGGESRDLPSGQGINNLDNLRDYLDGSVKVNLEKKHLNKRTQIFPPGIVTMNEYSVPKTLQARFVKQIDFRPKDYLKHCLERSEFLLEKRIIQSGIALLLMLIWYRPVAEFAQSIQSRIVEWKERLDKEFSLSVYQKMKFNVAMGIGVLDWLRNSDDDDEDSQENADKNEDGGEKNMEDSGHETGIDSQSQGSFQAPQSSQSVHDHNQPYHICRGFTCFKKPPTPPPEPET
Chain of Genome polyprotein (P29990 2492-3391 limits assumed): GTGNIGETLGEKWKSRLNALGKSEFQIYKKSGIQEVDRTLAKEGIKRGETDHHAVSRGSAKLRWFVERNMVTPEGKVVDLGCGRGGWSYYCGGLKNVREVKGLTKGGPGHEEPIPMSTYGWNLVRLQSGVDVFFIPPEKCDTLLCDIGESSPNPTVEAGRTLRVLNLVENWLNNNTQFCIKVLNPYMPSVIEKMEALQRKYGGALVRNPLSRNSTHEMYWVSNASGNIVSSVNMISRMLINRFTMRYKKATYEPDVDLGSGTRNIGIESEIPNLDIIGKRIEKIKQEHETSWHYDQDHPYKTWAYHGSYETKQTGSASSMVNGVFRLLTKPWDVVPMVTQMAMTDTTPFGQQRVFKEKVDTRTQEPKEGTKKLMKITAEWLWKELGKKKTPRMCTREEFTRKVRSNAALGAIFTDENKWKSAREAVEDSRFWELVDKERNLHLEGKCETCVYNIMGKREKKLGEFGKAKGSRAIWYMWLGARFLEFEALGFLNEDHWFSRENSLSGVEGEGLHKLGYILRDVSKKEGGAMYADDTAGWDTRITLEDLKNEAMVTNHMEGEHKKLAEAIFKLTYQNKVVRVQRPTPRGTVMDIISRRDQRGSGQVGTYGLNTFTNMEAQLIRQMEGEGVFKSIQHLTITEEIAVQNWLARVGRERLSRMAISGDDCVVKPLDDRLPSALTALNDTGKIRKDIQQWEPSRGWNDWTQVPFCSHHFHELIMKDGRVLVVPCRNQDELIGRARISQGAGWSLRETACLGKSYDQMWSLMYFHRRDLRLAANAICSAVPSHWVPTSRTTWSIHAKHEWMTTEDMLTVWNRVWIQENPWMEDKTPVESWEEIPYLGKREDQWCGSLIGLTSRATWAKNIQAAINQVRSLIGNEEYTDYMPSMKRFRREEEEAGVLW

With `CCN=C(S)NNc1nnc(-c2ccccc2)c(-c2ccccc2)n1` the EC50 (Beta-galactosidase) was > 40 µM (inactive), the IC50 [1] was > 40 µM (not active) and the IC50 [2] was > 122 µM (inactive).
For `C=CCn1c(SCC(=O)c2cc(C)n(C(C)COC)c2C)nc2sc(C)c(C)c2c1=O` (centres undefined), the IC50 [3] was > 66 µM (inactive), the IC50 (Protein Tat) was > 100 µM (active) and the IC50 [4] was > 66 µM (inactive).
With `CCC(NCCC(c1ccccc1)c1ccccc1)=C1C(=O)N(C)C(=O)N(C)C1=O` the IC50 [5] was 5.26 µM (active) and the IC50 [6] was 5.26 µM (active).
In the case of `C=CCN1C(=O)NC(=O)/C(=C(/CC)NCCN2CCOCC2)C1=O`, the IC50 (Protein Tat) was > 100 µM (active).
For `N#Cc1ccc(N2CCN(C(=O)CCCCCn3c(=S)[nH]c4ccccc4c3=O)CC2)cc1`, the IC50 (Estrogen receptor beta) was 10.5 µM (not active).
In the case of `Cc1n[nH]c(S/C(=C/c2ccc(OCc3ccc(C(=O)O)cc3)cc2)C(=O)O)n1`, the IC50 (Albumin) was > 94.1 µM (inactive).
In the case of `CC1=NN(c2ccc(Cl)c(C(=O)O)c2)C(=O)/C1=C/c1ccc(-c2ccccc2[N+](=O)[O-])o1`, the IC50 [7] was 28.7 µM (active), the IC50 (Genome polyprotein) was 9.5 µM (active) and the CC50 [8] was 100 µM (active). The IC50 (Large T antigen) was 15.7 µM (active).
With `Cc1onc(-c2ccccc2Cl)c1C(=O)Nc1sc2c(c1C#N)CCC2` the IC50 [5] was 7.12 µM (active), the IC50 [6] was 5.86 µM (active) and the EC50 [9] was 1.59 µM (active). The EC50 [10] was > 160 µM (inactive).
With `COc1ccc(-c2cc(C(=O)N3CCCCCC3)c3ccccc3n2)c(OC)c1` the IC50 (cells) was 28 µM (active) and the CC50 [11] was 40.8 µM (active).
In the case of `Cc1cc(C(=O)NNC(S)=NC(C)c2ccccc2)c2ccccc2n1` (centres undefined), the EC50 [9] was > 38 µM (not active), the IC50 [2] was > 122 µM (inactive) and the EC50 [10] was > 150 µM (inactive).
With `O=C1NC(=O)N(Cc2ccco2)C(=O)/C1=C/NNC(=O)c1ccccc1` the IC50 (Albumin) was > 94.2 µM (inactive).
For `Cc1ccc(S(=O)(=O)C(c2ccccc2)c2c(C)noc2C)cc1` (centres undefined), the IC50 [5] was > 35 µM (not active) and the IC50 [6] was 3.92 µM (active).
In the case of `C[C@@H]1CCCCO[C@@H](CN(C)C(=O)Nc2cccc3ccccc23)[C@H](C)CN([C@H](C)CO)C(=O)c2cc(NS(=O)(=O)c3ccccc3)ccc2O1`, the AC50 [12] was > 70 µM (inactive) and the AC50 (Paired box protein Pax-8) was 3.66 µM (active).
With `CC(C)(C)[S@@+]([O-])N1Cc2cc(C(=O)NCc3ccc4c(c3)OCO4)nc(-c3cccc(-c4ccccc4)c3)c2[C@H]1CCO` the AC50 [13] was 0.309 µM (active).
With `O=C(Cc1ccccn1)N1CCCCN2[C@@H](CO)[C@H](c3ccc(-c4ccc(F)cc4)cc3)[C@@H]2C1` the AC50 [13] was 1.43 µM (active).
With `O=C1C(=O)N(Cc2ccc(-c3ccsc3)cc2)c2ccc(OC(F)(F)F)cc21` the IC50 [2] was 25.5 µM (inactive).
For `CCOP(=S)(OCC)SCSc1ccc(Cl)cc1` [CARBOFENOTION], the IC50 [14] was > 20 µM (inactive), the IC50 [15] was > 20 µM (inactive) and the IC50 [16] was > 20 µM (inactive). The IC50 [17] was > 20 µM (inactive), the IC50 [18] was > 20 µM (inactive) and the IC50 [19] was > 20 µM (inactive).
In the case of `C=CCN1CC[C@]23CCCC[C@H]2[C@H]1Cc1ccc(O)cc13` [LEVALLORPHAN], the IC50 [20] was > 20 µM (inactive), the IC50 [14] was > 20 µM (inactive) and the IC50 [15] was > 20 µM (inactive). For the same compound, the IC50 [21] was > 20 µM (inactive), the IC50 [16] was > 20 µM (inactive) and the IC50 [17] was > 20 µM (inactive). The IC50 [18] was > 20 µM (inactive) and the IC50 [19] was > 20 µM (inactive).
For `COC(=O)Nc1nc2cc([S+]([O-])c3ccccc3)ccc2[nH]1` (centres undefined) [OXFENDAZOLE], the IC50 [22] was 0.331 µM (active), the IC50 [20] was > 20 µM (inactive) and the IC50 [14] was 0.001 µM (active). For the same compound, the IC50 [15] was > 20 µM (inactive), the IC50 [21] was 0.001 µM (active) and the IC50 [23] was 0.326 µM (active). The IC50 [17] was > 20 µM (inactive) and the IC50 [19] was 0.001 µM (active).
In the case of `O=C(Nc1ccc(Br)cc1)c1cc(Br)cc(Br)c1O` [TRIBROMSALAN], the IC50 [22] was > 10 µM (inactive), the IC50 [20] was 0.001 µM (active) and the IC50 [14] was 0.001 µM (active). For the same compound, the IC50 [15] was 0.001 µM (active), the IC50 [21] was 0.003 µM (active) and the IC50 [23] was > 10 µM (inactive). For the same compound, the IC50 [16] was 0.003 µM (active), the IC50 [17] was 0.001 µM (active) and the IC50 [18] was 0.001 µM (active). For the same compound, the IC50 [19] was 0.003 µM (active).
